This note sets out measurements from patent US20070167513A1, “Crystalline forms of duloxetine free base” (priority 2004, published 2007).

The mark [1] stands for this setting: before exposure to heat or light.
Setting [2] is: before exposure to heat or light, Hydrochloride.
The mark [3] stands for this setting: stress condition 45° C., Hydrochloride.
[4] abbreviates: stress condition 60° C., Hydrochloride.
Setting [5] is: stress condition UV, Hydrochloride.

The structures appear in SMILES notation. Where a name gives a salt, the structure may show the parent alone. Read-outs that look alike come from different tables or passages of the source.

Consider `CNCC[C@H](Oc1cccc2ccccc12)c1cccs1` [DULOXETINE HCI (from free base), Duloxetine Hydrochloride], for which the Description result is “White powder” under setting [1], “White powder” under setting [3], “White powder” under setting [4] and “Cream” under setting [5]. For the same compound, the “SMI (single maximum impurity)” value by setting is: under setting [2], 0.05%; under setting [3], 0.07%; under setting [4], 0.07%; under setting [5], 0.06%. In addition, the Total imp is recorded as 0.11% under setting [2], 0.12% under setting [3], 0.12% under setting [4] and 0.11% under setting [5]. For the same compound, the resistance to degradation entry (compared with duloxetine hydrochloride prepared by conventional prior art methods) is “more resistant to degradation”.

With `CNCC[C@H](Oc1cccc2ccccc12)c1cccs1` [[…] (from prior art)] [Duloxetine Hydrochloride, reference compound], the Description entry is “White powder” under setting [1], “Cream coloured” under setting [3], “Light pink” under setting [4] and “Light brown” under setting [5]. Besides, the “SMI (single maximum impurity)” value by setting is: under setting [2], 0.20%; under setting [3], 0.19%; under setting [4], 0.19%; under setting [5], 0.19%. The Total imp by setting is: under setting [2], 0.48%; under setting [3], 0.65%; under setting [4], 0.70%; under setting [5], 0.66%.
